Experimental data from patent US8956648B2, “Calciumphosphate-based nanoparticles as carrier-systems for photodynamic therapy” (Biolitec PharmaMarketing Ltd, priority 2008, dated 2015).

Test system: human colon adenocarcinoma cell line HT29
Assay: Photodynamic cell test on HT29 tumor cell line (XTT viability after laser irradiation)
Assay type: cell-based
Conditions: HT29 cells, 24 h incubation, 652 nm diode laser 50 J cm^−2, XTT assay
Protocol: The photosensitizing activity was determined in the human colon adenocarcinoma cell line HT29. The HT29 cell lines were grown in DMEM (cc-pro GmbH) supplemented with 10% heat-inactivated fetal calf serum (FCS, cc-pro GmbH), 1% penicillin (10000 IU) and streptomycin (10,000 μg ml^−1, cc-pro GmbH). Cells were kept as a monolayer culture in a humidified incubator (5% CO2 in air at 37° C.).
A stock solution of the nanoparticle formulation was kept in the dark at 4° C. Further dilution was performed in RPMI 1640 medium without phenol red supplemented with 10% FCS to reach a final photosensitizer concentration of 2 or 10 μM, respectively.
2-10^4 cells ml^−1 were seeded in micro plates ([…]). Cells were incubated with fresh medium (RPMI without phenol red) containing 10% FCS with 2 or 10 μM of the photosensitizer for 24 h before light exposure. Before photosensitization, cells were washed, incubated with RPMI without phenol red and 10% FCS, then irradiated at room temperature with a 652 nm diode laser (Ceralas PDT 652, biolitec AG) at a fixed fluence rate of 100 mW cm^−2 (50 J cm^−2). […]
The cell viability was assessed by the XTT assay. […]
The absorbance of the samples was measured with a spectrophotometer (Tecan Infinite 200, Tecan Group Ltd.) at a wavelength of 490 nm. In order to measure reference absorbance (to measure non-specific readings) a wavelength of 630-690 nm was used. […]

## O=P(O)(O)Oc1ccc(-c2c3nc(c(-c4ccc(OP(=O)(O)O)cc4)c4ccc([nH]4)c(-c4ccc(OP(=O)(O)O)cc4)c4nc(c(-c5ccc(OP(=O)(O)O)cc5)c5ccc2[nH]5)C=C4)C=C3)cc1 [pTPPP, 5,10,15,20-tetrakis(4-phosphonooxyphenyl)porphine]
  photodynamic activity: no photodynamic activity
